Results as given in US4670469A, “Hydroxamic acid and pharmaceutical preparations containing the same” (VEB Arzneimittelwerk Dresden, priority 1983, dated 1987).
Where two headings read alike, the source gives them in different places.

What was measured:
[1] = target: T1, lipoxygenase from rabbit reticulocytes (Oryctolagus cuniculus, UniProt P12530); assay: Inhibition of the activity of lipoxygenase from rabbit reticulocytes (oxygen consumption, Clark electrode); format: biochemical; details: for IC84: read-out: I84
T1 construct: The lipoxygenase from rabbit reticulocytes is obtained in electrophoretically and immunologically pure form; from tissue; host or cells: rabbit reticulocytes
T1 sequence (P12530 1-663): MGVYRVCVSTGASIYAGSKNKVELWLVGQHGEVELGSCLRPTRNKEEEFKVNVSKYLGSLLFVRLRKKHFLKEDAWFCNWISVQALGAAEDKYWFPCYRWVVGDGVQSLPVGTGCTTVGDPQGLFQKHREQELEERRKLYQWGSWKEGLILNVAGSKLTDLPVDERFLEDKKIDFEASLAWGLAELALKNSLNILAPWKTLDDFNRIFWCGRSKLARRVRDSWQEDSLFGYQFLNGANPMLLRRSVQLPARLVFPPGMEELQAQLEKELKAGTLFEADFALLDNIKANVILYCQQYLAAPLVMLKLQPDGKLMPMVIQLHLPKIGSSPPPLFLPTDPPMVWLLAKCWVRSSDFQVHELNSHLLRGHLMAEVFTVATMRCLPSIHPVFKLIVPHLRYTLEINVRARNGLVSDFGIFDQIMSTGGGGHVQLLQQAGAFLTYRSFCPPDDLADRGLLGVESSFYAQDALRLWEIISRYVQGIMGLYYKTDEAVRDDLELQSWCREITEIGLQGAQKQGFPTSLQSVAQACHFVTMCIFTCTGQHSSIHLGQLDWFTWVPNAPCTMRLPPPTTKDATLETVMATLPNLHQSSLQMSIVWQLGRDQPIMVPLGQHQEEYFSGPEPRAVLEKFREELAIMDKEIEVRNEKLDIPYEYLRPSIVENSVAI
Protocol: The lipoxygenase from rabbit reticulocytes was obtained in electrophoretically and immunologically pure form according to a technique known from the literature (S. M. Rapoport et al. Methods in Enzymology 71, 430 (1981)). The determination of lipoxygenase activity follows at 25° C. through the polarographic measurement of the oxygen consumption by means of Clark Electrode in a standardized system.
Through variation of the substance concentrations, the titration curves of the inhibition and therefrom the inhibition concentrations (I-value) of the compounds can be determined.
The testing of compounds for antiasthmatic, antiallergenic, inflammation-inhibiting and antithrombotic activity on the basis on the inhibition of the lipoxygenase reaction of the arachidonic acid cascade follows in a molecular/pharmacological test system. […] The lipoxygenase from rabbit reticulocytes is obtained in electrophoretically and immunologically pure form according to the techniques described in the literature (supra). The determination of the lipoxygenase activity follows at 25° C. through the polorographic measurement of oxygen consumption by means of a Clark-electrode in the following system: 0.1M potassiumphosphate, pH 7.4, with 0.2 percent sodium cholate and 0.53 mM linoleic acid. The enzyme concentration in the measurement preparation came to 25 nM. The compounds to be tested are dissolved in methylglycol (freshly distilled in a vacuum) and pre-incubated for 15 minutes at the measuring temperature in the absence of sodium cholate and linoleic acid. […] The enzyme reaction is started by the addition of sodium cholate and linoleic acid.

guinea pig lung strips [2] = assay: Activity on the basal tones of guinea pig lung strips; details: Cavia porcellus, basal tone, cumulative dose-activity curve
Excerpt: (§1) The testing of the compounds for antiasthmatic activity follows on isolated lung strips and isolated tracheal rings from guinea pigs according to measuring methods known from the literature (supra) in modified form. The measurements follow in thermostatically controlled organ bath, isotonically using a contraction measuring arrangement with lift receiver, measuring coil, measuring amplifier (inductive measurement with the aid of a high frequency resonant circuit). The gasification follows with air. The suspension solution has the following composition: 39.46 g NaCl, 2.2 g KCl, 6.07 g Tris, 1.0 g CaCl2, 9.9 g glucose, 1.0 ml saturated MgCl2 -solution, 43 ml 1N HCl; pH 7.4.
(c) Activity on the basal tones of guinea pig lung strips.
Increasing concentrations of the active substance are added to the suspension medium. There occurs a dilatation, which is cumulatively measured. From the Dose-Activity-curves are provided the following parameters: […]

guinea pig lung strips [3] = assay: Arachidonic acid-induced spasm of isolated guinea pig lung strips; details: active substance 100 μM
Excerpt: They display in animal experimental tests on isolated lung strips from guinea pigs a pronounced antiasthmatic effect. The testing of the mentioned pharmacological characteristics follows according to the principles of measuring techniques known from the literature, which come into use in modified form (G. M. Drazen et al. G. Clin. Invest. 63 1 (1979); M. W. Schneider and G. M. Drazen Amer. Rev. Resp. Dis. 121 835 (1980); S. S. Yen and W. Kreutner, Agents Actions 10 274 (1980); S. S. Yen Prostaglandins 22, 183 (1981)).
The compounds of Formula I effect a significant restraint on arachidonic acid-induced bronchial constriction (1.5.10^-5 M arachidonic acid) in the guinea pig lung preparations (see, Example 6). Also with the addition of a cyclooxygenase inhibitor to the measuring system this effect was unaltered, and to some extent stronger, detectably. These experimental results permit without a doubt the conclusion that the compounds of Formula I involve inhibitors of the lipoxygerase pathway of arachidonic utilization, and the above described pharmacological effect is grounded upon this mechanism of activity.
as §1
(a) Activity on spasm of the guinea pig lung strips, induced by exogenous arachidonic acid.
The spasm is triggered by rising concentrations of arachidonic acid (concentrated solution in ethanol, stored in N2 -atmosphere) and is cumulatively measured. […] The active substance caused a highly significant displacement to the right of the Dose-Activity curves for arachidonic acid, visible by a clear elevation of the ED50 - and ED84 -values. The effect can be described through the following activity index: [formula] In an analogous manner, the index i84 is determined from the measured data.

thrombocyte aggregation = assay: Arachidonic acid-induced thrombocyte aggregation in thrombocyte-rich plasma; format: cell-based, humans; details: Homo sapiens; 0.8 mM arachidonic acid; concentration giving total restraint of aggregation
Excerpt: Since with the new medicines the restraints of lipoxygenase has been identified as a molecular type of attack, also their influence on the thrombocyte-aggregation has been tested. The essential role of the lipoxygenase pathway for irreversibility of the thrombocyte aggregation is now known. (C. E. Dutilh et al. Prostaglandins and Medicine 6, 111 (1981)). The key role is attributed to the irreversibility of the thrombocyte aggregation in the pathogenesis of thrombotic illnesses. […] In the experiments, the thrombocyte aggregation was triggered either by means of arachidonic acid or by means of platelet activation factor (PAF-Acether).
The testing of the compounds for antithrombotic and thrombolytic activity follows in authentic cell systems of humans in vitro. Thrombocyte-rich plasma from the blood of healthy donors is obtained by centrifugation at 1,000×g. The measurement of the thrombocyte aggregation follows by means of an aggregometer based upon diffuse light scattering or light absorption of the produced cell aggregate. The thrombocyte-rich plasma is pre-incubated at 37° C. for 3 minutes with the active substance or substances; thereafter the thrombocyte aggregation is triggered through the addition of either 0.8 mM arachidonic acid or 1 μM platelet activation factor (PAF-acether). The preparations are then stirred with a velocity of 800 rpm. Indeed according to the employed active substance concentration there occurs either a strong delay or a complete inhibition of the thrombocyte aggregation.

guinea pig trachia = assay: Carbachol-induced spasm of guinea pig trachea; details: Cavia porcellus; spasm triggered by 3.9 μM carbachol; read-out: active substance concentration at which strong to very strong dilatation was clearly determinable
Excerpt: as §1
(b) Activity on the carbachol-induced spasm of guinea pig trachia
The spasms are triggered by 3.9 μM carbachol.

[4] = 25° C., pH 7.4, 0.53 mM linoleic acid, 15 min pre-incubation, read-out: I50
[5] = 25° C., pH 7.4, 0.53 mM linoleic acid, 15 min pre-incubation

IC50 [1, 4] [µM]	IC84 [1, 5] [µM]	SMILES	also measured
47	500	O=C(NO)c1ccc2ccccc2c1O [1-hydroxy-2-naphthylhydroxamic acid]	–
42	130	CCC(Oc1cccc2ccccc12)C(=O)NO (centres unmarked) [2(1'-naphthoxy)-2-ethyl-acethydroxamic acid]	–
25	60	O=C(COc1cccc2ccccc12)NO [2(1'-naphthoxy)-acethydroxamic acid]	–
32	–	CCC(Oc1ccc2ccccc2c1)C(=O)NO (centres unmarked) [2(2'-naphthoxy)-2-ethyl-acethydroxamic acid]	–
27	–	CC(C)C(Oc1ccc2ccccc2c1)C(=O)NO (centres unmarked) [2(2'-naphthoxy)-2-i-propyl-acethydroxamic acid]	–
40	120	CC(Oc1ccc2ccccc2c1)C(=O)NO (centres unmarked) [2(2'-naphthoxy)-2-methyl-acethydroxamic acid]	–
19	–	CCCCC(Oc1ccc2ccccc2c1)C(=O)NO (centres unmarked) [2(2'-naphthoxy)-2-n-butyl-acethydroxamic acid]	–
1.5	4.8	CCCCCCCCCC(Oc1ccc2ccccc2c1)C(=O)NO (centres unmarked) [2(2'-naphthoxy)-2-n-nonyl-acethydroxamic acid]	–
2.3	7	CCCCCCCCC(Oc1ccc2ccccc2c1)C(=O)NO (centres unmarked) [2(2'-naphthoxy)-2-n-octyl-acethydroxamic acid]	–
24	–	CCCC(Oc1ccc2ccccc2c1)C(=O)NO (centres unmarked) [2(2'-naphthoxy)-2-n-propyl-acethydroxamic acid]	–
7	15	O=C(CCOc1ccc2ccccc2c1)NO [3(2'-naphthoxy)-n-propylhydroxamic acid, 3(2'-naphthoxy)-propylhydroxamic acid]	–
–	–	COc1ccc(O)c(C(C)(C)C)c1 [3-tert.-butyl-4-hydroxy-anisol, reference compound]	EC50 (guinea pig lung strips [2]; read-out: ED50 (dilatation)): 61 µM; EC84 (guinea pig lung strips [2]; read-out: ED84 (dilatation)): 130 µM; IC50 [1]: 160 µM; activity index i50 (displacement of arachidonic acid ED50) (guinea pig lung strips [3]): 4.6; activity index i84 (displacement of arachidonic acid ED84) (guinea pig lung strips [3]): 3.6
4	7.5	O=C(CCCOc1ccc2ccccc2c1)NO [4(2'-naphthoxy)-n-butyl-hydroxamic acid, 4(2'-naphthoxy)-butylhydroxamic acid]	–
4.6	16	O=[N+]([O-])c1ccc(O)c(O)c1 [4-nitrocatechol, reference compound]	IC100 (thrombocyte aggregation): 60 µM
3.5	6.4	O=C(CCCCOc1ccc2ccccc2c1)NO [5(2'-naphthoxy)valerylhydroxamic acid, 5(2'-naphthoxy)-valerylhydroxamic acid]	–
1.3	–	CCCCCCCCC#CCC#CCC#CCCCC(=O)O [5,8,11-eicosatriicacid, reference compound]	–
2.1	4.6	O=C(CCCCCCCOc1ccc2ccccc2c1)NO [8(2'-naphthoxy)-octylhydroxamic acid]	–
20	–	NC1=NN(c2cccc(C(F)(F)F)c2)CC1 [BW 755 C, 3-amino-N-(3-trifluoromethylphenyl)-pyrazoline-(2), reference compound]	–
–	–	CC(Cc1ccc(O)c(O)c1)C(C)Cc1ccc(O)c(O)c1 (centres unmarked) [nordihydroguaiaretic acid, reference compound]	minimal effective concentration (guinea pig trachia): 50 µM
